Laboratory results as given in PubChem BioAssay AID206 (DTP/NCI, 2004).
“And” between values parts separate entries of the source, which are not always exact repeats. Equal entries are not always repeated. Results filed as inconclusive are left out.

Test system: nude mice, HT29 intrarenal xenograft, tumor weight T/C
Test: NCI In Vivo Anticancer Drug Screen. Data for tumor model HT29;CX-1 Human Adenocarcinoma (MER+) (intrarenal inoculation) in NU/NU Swiss (nude) mice
Details: endpoint: mean tumor weight change, higher = larger tumour
How it was run: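 T/C = treated-group value ÷ vehicle-group value, using tumor size or survival.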

[1] = dose: 25.0 mg/kg/injection, schedule: Q04DX004 (sc), vehicle: saline with Tween-80
[2] = dose: 50.0 mg/kg/injection, schedule: Q04DX004 (sc), vehicle: saline with Tween-80
[3] = dose: 100.0 mg/kg/injection, schedule: Q04DX004 (sc), vehicle: saline with Tween-80
[4] = dose: 200.0 mg/kg/injection, schedule: Q04DX004 (sc), vehicle: saline with Tween-80
[5] = dose: 50.0 mg/kg/injection, schedule: Q04DX004 (sc), vehicle: Klucel (hydroxypropylcellulose) (HPC)
[6] = dose: 100.0 mg/kg/injection, schedule: Q04DX004 (sc), vehicle: Klucel (hydroxypropylcellulose) (HPC)
[7] = dose: 200.0 mg/kg/injection, schedule: Q04DX004 (sc), vehicle: Klucel (hydroxypropylcellulose) (HPC)
[8] = dose: 300.0 mg/kg/injection, schedule: Q04DX004 (sc), vehicle: Klucel (hydroxypropylcellulose) (HPC)
[9] = dose: 600.0 mg/kg/injection, schedule: Q04DX004 (sc), vehicle: Klucel (hydroxypropylcellulose) (HPC)
[10] = dose: 150.0 mg/kg/injection, schedule: Q04DX004 (sc), vehicle: saline with Tween-80
[11] = dose: 300.0 mg/kg/injection, schedule: Q04DX004 (sc), vehicle: saline with Tween-80
[12] = dose: 600.0 mg/kg/injection, schedule: Q04DX004 (sc), vehicle: saline with Tween-80
[13] = dose: 1200.0 mg/kg/injection, schedule: Q04DX004 (sc), vehicle: saline with Tween-80
[14] = dose: 2400.0 mg/kg/injection, schedule: Q04DX004 (sc), vehicle: saline with Tween-80
[15] = dose: 75.0 mg/kg/injection, schedule: Q04DX004 (sc), vehicle: saline with Tween-80
[16] = dose: 150.0 mg/kg/injection, schedule: Q04DX004 (sc), vehicle: saline

SMILES: Clc1ccc(C(c2ccccc2Cl)C(Cl)Cl)cc1 (stereo not given)
- T/C (dose: 1200.0 mg/kg/injection, schedule: Q04DX004 (sc), vehicle: saline): 99 % of control
- T/C (dose: 2400.0 mg/kg/injection, schedule: Q04DX004 (sc), vehicle: saline): 64 % of control
- T/C (dose: 4800.0 mg/kg/injection, schedule: Q04DX004 (sc), vehicle: saline): 77 % of control
- T/C (dose: 9600.0 mg/kg/injection, schedule: Q04DX004 (sc), vehicle: saline): 67 % of control

SMILES: CN=C(N)N/N=C(\C)c1ccc2c(c1)Cc1cc(/C(C)=N/NC(N)=NC)ccc1-2
- T/C [1]: 102 % of control
- T/C [2]: 53 % of control
- T/C [3]: 105 % of control
- T/C [4]: 50 % of control

SMILES: O=C(O)/C=C/C(=O)Nc1ccc(Cl)c(Cl)c1
- T/C [5]: 151 % of control
- T/C [6]: 102 % of control
- T/C [7]: 91 % of control

SMILES: O=c1cnn(C2OC(CO)C(O)C2O)c(=O)[nH]1 (stereo not given)
- T/C (dose: 200.0 mg/kg/injection, schedule: Q01DX010 (sc), vehicle: saline): 71 % of control
- T/C (dose: 400.0 mg/kg/injection, schedule: Q01DX010 (sc), vehicle: saline): 100 % of control
- T/C (dose: 800.0 mg/kg/injection, schedule: Q01DX010 (sc), vehicle: saline): 97 % of control
- T/C (dose: 1600.0 mg/kg/injection, schedule: Q01DX010 (sc), vehicle: saline): 34 % of control

SMILES: O=c1nc(-c2ccco2)sc(=O)[nH]1
- T/C [8]: 235 % of control
- T/C [9]: 98 % of control

SMILES: c1ccc(CN2CCOC2)cc1
- T/C (dose: 25.0 mg/kg/injection, schedule: Q01DX010 (sc), vehicle: suspension in saline): 100 % of control
- T/C (dose: 50.0 mg/kg/injection, schedule: Q01DX010 (sc), vehicle: suspension in saline): 106 % of control
- T/C (dose: 100.0 mg/kg/injection, schedule: Q01DX010 (sc), vehicle: suspension in saline): 102 % of control

SMILES: O=[N+]([O-])c1ccc(Sc2ccncn2)c([N+](=O)[O-])c1
- T/C [10]: 44 % of control
- T/C [11]: 85 % of control
- T/C [12]: 85 % of control and 100 % of control
- T/C [13]: 73 % of control
- T/C [14]: 86 % of control

SMILES: COc1ccc(C(=O)C(CN(C)C)CN(C)C)cc1
- T/C (dose: 12.5 mg/kg/injection, schedule: Q04DX004 (sc), vehicle: saline): 100 % of control
- T/C (dose: 25.0 mg/kg/injection, schedule: Q04DX004 (sc), vehicle: saline): 38 % of control

SMILES: O=C(C#Cc1ccccc1)c1ccccc1
- T/C (dose: 12.5 mg/kg/injection, schedule: Q04DX004 (sc), vehicle: Klucel (hydroxypropylcellulose) (HPC)): 71 % of control
- T/C (dose: 25.0 mg/kg/injection, schedule: Q04DX004 (sc), vehicle: Klucel (hydroxypropylcellulose) (HPC)): 64 % of control
- T/C [5]: 88 % of control
- T/C [6]: 76 % of control

SMILES: Cc1c2ccncc2c(C)c2c1[nH]c1ccccc12
- T/C (dose: 12.5 mg/kg/injection, schedule: Q01DX010 (sc), vehicle: saline): 70 % of control
- T/C (dose: 25.0 mg/kg/injection, schedule: Q01DX010 (sc), vehicle: saline): 47 % of control

SMILES: CCCC(=O)Oc1ccc(/C=N/NC(N)=S)nc1
- T/C (dose: 100.0 mg/kg/injection, schedule: Q01DX010 (sc), vehicle: saline with Tween-80): 182 % of control
- T/C (dose: 200.0 mg/kg/injection, schedule: Q01DX010 (sc), vehicle: saline with Tween-80): 168 % of control

SMILES: COC1=C(OC)C(=O)C(SC/C=C(\C)CCCC(C)CCCC(C)CCCC(C)C)=CC1=O (stereo not given)
- T/C [3]: 11 % of control
- T/C [4]: 36 % of control
- T/C [11]: 59 % of control
- T/C (dose: 400.0 mg/kg/injection, schedule: Q04DX004 (sc), vehicle: saline with Tween-80): 18 % of control
- T/C [12]: 26 % of control
- T/C (dose: 800.0 mg/kg/injection, schedule: Q04DX004 (sc), vehicle: saline with Tween-80): 12 % of control
- T/C [13]: 39 % of control
- T/C [14]: 55 % of control

SMILES: Cc1ccc(NCC2(/N=C/c3ccccc3)OC(CO)C(O)C2O)cc1 (stereo not given)
- T/C [7]: 81 % of control
- T/C (dose: 400.0 mg/kg/injection, schedule: Q04DX004 (sc), vehicle: Klucel (hydroxypropylcellulose) (HPC)): 70 % of control
- T/C (dose: 800.0 mg/kg/injection, schedule: Q04DX004 (sc), vehicle: Klucel (hydroxypropylcellulose) (HPC)): 92 % of control
- T/C (dose: 1600.0 mg/kg/injection, schedule: Q04DX004 (sc), vehicle: Klucel (hydroxypropylcellulose) (HPC)): 94 % of control

SMILES: CSC(SC)=C1C(=O)NC(=O)NC1=O
- T/C (dose: 18.7 mg/kg/injection, schedule: Q04DX004 (sc), vehicle: suspension in saline): 66 % of control
- T/C (dose: 37.5 mg/kg/injection, schedule: Q04DX004 (sc), vehicle: suspension in saline): 77 % of control
- T/C (dose: 75.0 mg/kg/injection, schedule: Q04DX004 (sc), vehicle: suspension in saline): 49 % of control
- T/C (dose: 150.0 mg/kg/injection, schedule: Q04DX004 (sc), vehicle: suspension in saline): 56 % of control
- T/C (dose: 600.0 mg/kg/injection, schedule: Q04DX004 (sc), vehicle: suspension in saline): 97 % of control

SMILES: CCC1CCCCN1C(=S)N/N=C(\C)c1ccccn1 (stereo not given)
- T/C (dose: 37.5 mg/kg/injection, schedule: Q04DX004 (sc), vehicle: saline with Tween-80): 59 % of control
- T/C [15]: 26 % of control

SMILES: CC1=NN(c2cccc(S(=O)(=O)O)c2)C(=O)C1N=Nc1cc(Cl)cc(S(=O)(=O)O)c1O.CC1=NN(c2cccc(S(=O)(=O)O)c2)C(=O)C1N=Nc1cc(Cl)cc(S(=O)(=O)O)c1O.[Cr] (stereo not given)
- T/C [16]: 94 % of control
- T/C (dose: 300.0 mg/kg/injection, schedule: Q04DX004 (sc), vehicle: saline): 121 % of control
- T/C (dose: 600.0 mg/kg/injection, schedule: Q04DX004 (sc), vehicle: saline): 61 % of control

SMILES: COc1cc2cc(c1Cl)N(C)C(=O)CC(OC(=O)CC(C)C)C1(C)OC1C(C)C1CC(O)(NC(=O)O1)C(OC)/C=C/C=C(C)C2 (stereo not given)
- T/C (dose: 125.0 micrograms/kg/injection, schedule: Q04DX004 (sc), vehicle: saline + alcohol): 87 % of control and 99 % of control
- T/C (dose: 500.0 micrograms/kg/injection, schedule: Q04DX004 (sc), vehicle: saline + alcohol): 60 % of control

SMILES: Cc1cc(NCCCCCCCNc2cc(C)nc3cc(N)ccc23)c2ccc(N)cc2n1
- T/C (dose: 12.5 mg/kg/injection, schedule: Q04DX004 (sc), vehicle: saline with Tween-80): 32 % of control
- T/C [1]: 56 % of control
- T/C [2]: 51 % of control

SMILES: COc1ccc2ccccc2c1C1NC(=O)c2ccccc2N1 (stereo not given)
- T/C (dose: 150.0 mg/kg/injection, schedule: Q04DX004 (sc), vehicle: Klucel (hydroxypropylcellulose) (HPC)): 114 % of control
- T/C [8]: 115 % of control
- T/C [9]: 207 % of control
- T/C (dose: 1200.0 mg/kg/injection, schedule: Q04DX004 (sc), vehicle: Klucel (hydroxypropylcellulose) (HPC)): 201 % of control

SMILES: O=C(O)C1CC1.[Ag]
- T/C [15]: 81 % of control
- T/C [10]: 64 % of control

SMILES: Cc1c2cc(Cl)c3ccccc3c2c[n+]2ccccc12
- T/C [11]: 101 % of control
- T/C [12]: 82 % of control
- T/C [13]: 103 % of control

SMILES: O=Cc1c(O)c2ccccc2[nH]c1=O
- T/C [11]: 79 % of control
- T/C [12]: 98 % of control
- T/C [13]: 65 % of control

SMILES: COc1ccc(CC2C(=O)NC(C)C(=O)N(C)C3C(=O)N(C)C(Cc4ccc(O)c(c4)Oc4ccc(cc4)C3O)C(=O)NC(C)C(=O)NC(C)C(=O)N2C)cc1 (stereo not given)
- T/C (dose: 0.25 mg/kg/injection, schedule: Q01DX010 (sc), vehicle: saline with Tween-80): 94 % of control

SMILES: COC(=O)c1ccoc1
- T/C [16]: 116 % of control

SMILES: CN=C(N)N/N=C(\C)c1ccc2c(c1)Cc1ccccc1-2
- T/C [10]: 116 % of control
- T/C [11]: 91 % of control
- T/C [12]: 46 % of control
- T/C [13]: 81 % of control
